Measurements: patent publication US20110190122A1, “Triazole and Imidazole Compounds, Use Thereof and Agents Containing Them” (BASF SE, priority 2008, published 2011)

Tests used:
[1] = test system: Phakopsora pachyrhizi; experiment: Curative activity against soybean rust caused by Phakopsora pachyrhizi (Example G2, sprayed directly after 24 h incubation); format: in vivo; details: soybean seedlings, 300 ppm aqueous active compound preparation, sprayed to runoff after 24 h incubation, assessed after a further 14 days; untreated plants 90% infected
Method: (§1) The active compounds were prepared separately or together as a stock solution with 25 mg of active compound, which was made up to 10 ml with a mixture of acetone and/or DMSO and the emulsifier Uniperol® EL (wetting agent with emulsifying and dispersant action based on ethoxylated alkylphenols) in the volume ratio solvent/emulsifier of 99 to 1. Subsequently, it was made up to 100 ml with water. This stock solution was diluted with the described solvent/emulsifier/water mixture to the active compound concentration indicated below. Alternatively to this, the active compounds were used as a commercially available ready-to-use solution and diluted with water to the active compound concentration indicated.
Leaves of soybean seedlings grown in pots were inoculated with a spore suspension of soybean rust (Phakopsora pachyrhizi). The pots were then placed in a chamber of high atmospheric humidity (90 to 95%) and 23 to 27° C. for 24 hours. During this time, the spores germinated and the germ tubes penetrated into the leaf tissue. The infected plants were then sprayed to runoff point with the active compound solution described above at the active compound concentration indicated below. […] The extent of the rust fungus development on the leaves was then determined visually in % infections.

[2] = test system: Phakopsora pachyrhizi; experiment: Curative activity against soybean rust caused by Phakopsora pachyrhizi (Example G1, sprayed two days after incubation); format: in vivo; details: soybean seedlings, 300 ppm aqueous active compound preparation, sprayed to runoff two days after 24 h incubation, assessed after a further 10 days; untreated plants 90% infected
Method: as §1
Leaves of soybean seedlings grown in pots were inoculated with a spore suspension of soybean rust (Phakopsora pachyrhizi). The pots were then placed in a chamber of high atmospheric humidity (90 to 95%) and 23 to 27° C. for 24 hours. During this time, the spores germinated and the germ tubes penetrated into the leaf tissue. The infected plants were then cultivated further in a greenhouse at temperatures between 23 and 27° C. and 60 to 80% relative atmospheric humidity. After two days, the plants were sprayed to runoff point with the active compound solution described above at the active compound concentration indicated below. After the spray coating had dried on, the test plants were cultivated in a greenhouse at temperatures between 23 and 27° C. and 60 to 80% relative atmospheric humidity for a further 10 days. The extent of the rust fungus development on the leaves was then determined visually in % infections.

| Compound | infection (extent of the rust fungus development on the leaves, determined visually) [1] [%] | infection (extent of the rust fungus development on the leaves, determined visually) [2] [%] |
| --- | --- | --- |
| CC(C)[C@H](O)[C@@H](CCCCOc1cccc(F)c1F)n1nc[nH]c1=S (racemic) [I.A1, (RS,SR)-2-[5-(2,3-difluorophenoxy)-1-(1-hydroxy-2-methylpropyl)pentyl]-2,4-dihydro[1,2,4]triazole-3-thione] | 0 | – |
| CC(C)[C@H](O)[C@@H](CCCCOc1cccc(Cl)c1Cl)n1nc[nH]c1=S (racemic) [I.A2, (RS,SR)-2-[5-(2,3-dichlorophenoxy)-1-(1-hydroxy-2-methylpropyl)pentyl]-2,4-dihydro[1,2,4]triazole-3-thione] | – | 0 |
| CC(C)[C@H](O)[C@@H](CCCCOc1ccc(Cl)cc1Cl)n1nc[nH]c1=S (racemic) [I.A3, (RS,SR)-2-[5-(2,4-dichlorophenoxy)-1-(1-hydroxy-2-methylpropyl)pentyl]-2,4-dihydro[1,2,4]triazole-3-thione] | – | 0 |
| CC(C)[C@H](O)[C@@H](CCCCOc1cc(F)ccc1F)n1nc[nH]c1=S (racemic) [I.A4, (RS,SR)-2-[5-(2,5-difluorophenoxy)-1-(1-hydroxy-2-methylpropyl)pentyl]-2,4-dihydro[1,2,4]triazole-3-thione] | – | 0 |
